Measurements taken from patent publication US20260022118A1, “HETEROCYCLIC COMPOUNDS AS NRAS INHIBITORS” (Board of Regents, The University of Texas System, priority 2023, published 2026).

Tests used:
[1] = target: NRAS G12D C118S (Homo sapiens (Human), UniProt P01111, C118S/G12D); assay: NRas G12D Surface Plasmon Resonance (SPR) binding assay; details: Avi-tagged biotinylated NRAS G12D C118S on streptavidin chip, 25° C., 1:1 kinetic or steady-state fit
Procedure, shortened: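 Biotinylated Avi-tagged NRAS G12D C118S was captured at about 600 RU on a streptavidin chip alongside a blank reference channel. Compounds were run as 10-point 1:3 dilution series in HBS-P+ pH 7.4 with 5 mM MgCl2 and 3% DMSO, using a 2–4% DMSO solvent correction. A control compound at 10 μM was injected periodically to check protein activity.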

[2] = system: THP-1 cells expressing G12D (NRAS G12D); assay: Inhibition of NRAS G12D-mediated phosphorylation of ERK (AlphaLISA p-ERK1/2) in THP-1 cells; type: cell-based; details: Homo sapiens, THP-1, 2 h, 2 hours incubation, HBSS with 0% or 10% FBS, p-ERK1/2 (Thr202/Tyr204) AlphaLISA, read-out: pERK THP-1 IC50
Procedure, shortened: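 THP-1 cells expressing NRAS G12D, seeded in HBSS with 0% or 10% FBS, were exposed to test compound (1% DMSO final) for 2 h. p-ERK1/2 (Thr202/Tyr204) read by AlphaLISA SureFire Ultra. IC50 from curves normalized to no-inhibitor (100%) and 1 μM trametinib (0%) controls.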

Chain of NRAS G12D C118S (P01111 whole entry G12D/C118S): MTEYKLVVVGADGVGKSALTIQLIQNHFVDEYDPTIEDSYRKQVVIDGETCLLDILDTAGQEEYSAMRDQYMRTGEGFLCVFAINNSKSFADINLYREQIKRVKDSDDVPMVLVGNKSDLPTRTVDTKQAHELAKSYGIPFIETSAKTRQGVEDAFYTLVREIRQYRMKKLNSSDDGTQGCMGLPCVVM

## C#Cc1c(F)ccc2cc(O)cc(-c3nc(OC4CC4)c4c([C@H]5[C@@H]6CNC[C@@H]65)nn(C5CC5)c4c3F)c12 [Example 70, 4-(3-((1R,5S,6r)-3-azabicyclo[3.1.0]hexan-6-yl)-4-cyclopropoxy-1-cyclopropyl-7-fluoro-1H-pyrazolo[4,3-c]pyridin-6-yl)-5-ethynyl-6-fluoronaphthalen-2-ol]
[1]
  Kd: 0.0333 µM
[2]
  IC50: 0.169 µM

## C#Cc1c(F)ccc2cc(O)cc(-c3nc(CC)c4c([C@H]5[C@@H]6CNC[C@@H]65)nn(C5CC5)c4c3F)c12 [Example 72, 4-(3-((1R,5S,6r)-3-azabicyclo[3.1.0]hexan-6-yl)-1-cyclopropyl-4-ethyl-7-fluoro-1H-pyrazolo[4,3-c]pyridin-6-yl)-5-ethynyl-6-fluoronaphthalen-2-ol]
[1]
  Kd: 0.000594 µM
[2]
  IC50: 0.0244 µM

## C#Cc1c(F)ccc2cc(O)cc(-c3nc(CC(C)C)c4c([C@H]5[C@@H]6CNC[C@@H]65)nn(C5CC5)c4c3F)c12 [Example 73, 4-(3-((1R,5S,6r)-3-azabicyclo[3.1.0]hexan-6-yl)-1-cyclopropyl-7-fluoro-4-isobutyl-1H-pyrazolo[4,3-c]pyridin-6-yl)-5-ethynyl-6-fluoronaphthalen-2-ol]
[1]
  Kd: 0.212 µM
[2]
  IC50: 1.29 µM

## C#Cc1c(F)ccc2cc(O)cc(-c3nc(C(C)C)c4c([C@H]5[C@@H]6CNC[C@@H]65)nn(C5CC5)c4c3F)c12 [Example 74, 4-(3-((1R,5S,6r)-3-azabicyclo[3.1.0]hexan-6-yl)-1-cyclopropyl-7-fluoro-4-isopropyl-1H-pyrazolo[4,3-c]pyridin-6-yl)-5-ethynyl-6-fluoronaphthalen-2-ol]
[1]
  Kd: 0.000141 µM
[2]
  IC50: 0.00956 µM

## C#Cc1c(F)ccc2cc(O)cc(-c3nc(N(C)C(C)C)c4c([C@H]5[C@@H]6CNC[C@@H]65)nn(C5CC5)c4c3F)c12 [Example 75, 4-(3-((1R,5S,6r)-3-azabicyclo[3.1.0]hexan-6-yl)-1-cyclopropyl-7-fluoro-4-(isopropyl(methyl)amino)-1H-pyrazolo[4,3-c]pyridin-6-yl)-5-ethynyl-6-fluoronaphthalen-2-ol]
[1]
  Kd: 0.025 µM
[2]
  IC50: 0.248 µM

## C#Cc1c(F)ccc2cc(O)cc(-c3nc(NC)c4c([C@H]5[C@@H]6CNC[C@@H]65)nn(C5CC5)c4c3F)c12 [Example 76, 4-(3-((1R,5S,6r)-3-azabicyclo[3.1.0]hexan-6-yl)-1-cyclopropyl-7-fluoro-4-(methylamino)-1H-pyrazolo[4,3-c]pyridin-6-yl)-5-ethynyl-6-fluoronaphthalen-2-ol]
[1]
  Kd: 0.0283 µM
[2]
  IC50: 0.547 µM

## C#Cc1c(F)ccc2cc(O)cc(-c3nc(NC(C)C)c4c([C@H]5[C@@H]6CNC[C@@H]65)nn(C5CC5)c4c3F)c12 [Example 77, 4-(3-((1R,5S,6r)-3-azabicyclo[3.1.0]hexan-6-yl)-1-cyclopropyl-7-fluoro-4-(isopropylamino)-1H-pyrazolo[4,3-c]pyridin-6-yl)-5-ethynyl-6-fluoronaphthalen-2-ol]
[1]
  Kd: 0.0179 µM
[2]
  IC50: 0.258 µM

## C#Cc1c(F)ccc2cc(O)cc(-c3nc(Nc4ccccc4)c4c([C@H]5[C@@H]6CNC[C@@H]65)nn(C5CC5)c4c3F)c12 [Example 83, 4-(3-((1R,5S,6r)-3-azabicyclo[3.1.0]hexan-6-yl)-1-cyclopropyl-7-fluoro-4-(phenylamino)-1H-pyrazolo[4,3-c]pyridin-6-yl)-5-ethynyl-6-fluoronaphthalen-2-ol]
[1]
  Kd: 0.0495 µM
[2]
  IC50: 0.205 µM

## C#Cc1c(F)ccc2cc(O)cc(-c3ncc4c(N5CC6CCC(C5)N6)cn(C5CC5)c4c3F)c12 [Example 85, 4-(3-(3,8-diazabicyclo[3.2.1]octan-3-yl)-1-cyclopropyl-7-fluoro-1H-pyrrolo[3,2-c]pyridin-6-yl)-5-ethynyl-6-fluoronaphthalen-2-ol]
[1]
  Kd: 0.336 µM
[2]
  IC50: 1.71 µM

## C#Cc1c(F)ccc2cc(O)cc(-c3ncc4c(N5C[C@@H]6CC[C@H]5CN6)cn(C5CC5)c4c3F)c12 [Example 86, 4-(3-((1S,4S)-2,5-diazabicyclo[2.2.2]octan-2-yl)-1-cyclopropyl-7-fluoro-1H-pyrrolo[3,2-c]pyridin-6-yl)-5-ethynyl-6-fluoronaphthalen-2-ol]
[1]
  Kd: 0.151 µM
[2]
  IC50: 0.767 µM

## C#Cc1c(F)ccc2cc(N)cc(-c3nc(CC)c4c([C@H]5[C@@H]6CNC[C@@H]65)nn(C5CC5)c4c3F)c12 [Example 88, 4-(3-((1R,5S,6r)-3-azabicyclo[3.1.0]hexan-6-yl)-1-cyclopropyl-4-ethyl-7-fluoro-1H-pyrazolo[4,3-c]pyridin-6-yl)-5-ethynyl-6-fluoronaphthalen-2-amine]
[1]
  Kd: 0.00458 µM
[2]
  IC50: 0.227 µM

## C#Cc1c(F)ccc2cc(O)cc(-c3nc(CC)c4c(N5C[C@@H]6CC[C@H]5CN6)nn(C5CC5)c4c3F)c12 [Example 90, 4-(3-((1S,4S)-2,5-diazabicyclo[2.2.2]octan-2-yl)-1-cyclopropyl-4-ethyl-7-fluoro-1H-pyrazolo[4,3-c]pyridin-6-yl)-5-ethynyl-6-fluoronaphthalen-2-ol]
[1]
  Kd: 0.107 µM
[2]
  IC50: 0.888 µM

## C#Cc1c(F)ccc2cc(O)cc(-c3nc(OC)c4c(N5C[C@@H]6CC[C@H]5CN6)nn(C5CC5)c4c3F)c12 [Example 91, 4-(3-((1S,4S)-2,5-diazabicyclo[2.2.2]octan-2-yl)-1-cyclopropyl-7-fluoro-4-methoxy-1H-pyrazolo[4,3-c]pyridin-6-yl)-5-ethynyl-6-fluoronaphthalen-2-ol]
[1]
  Kd: 0.146 µM
[2]
  IC50: 1.65 µM

## C#Cc1c(F)ccc2cc(O)cc(-c3ncc4c([C@H]5[C@@H]6CNC(C(=O)OC)[C@@H]65)nn(C)c4c3F)c12 (stereo partly drawn) [Example 96, methyl (1S,5R,6S)-6-(6-(8-ethynyl-7-fluoro-3-hydroxynaphthalen-1-yl)-7-fluoro-1-methyl-1H-pyrazolo[4,3-c]pyridin-3-yl)-3-azabicyclo[3.1.0]hexane-2-carboxylate]
[1]
  Kd: 0.904 µM
[2]
  IC50: 0.36 µM

## C#Cc1c(F)ccc2cc(O)cc(-c3ncc4c([C@H]5[C@@H]6CNC(CO)[C@@H]65)nn(C)c4c3F)c12 (stereo partly drawn) [Example 97, 5-ethynyl-6-fluoro-4-(7-fluoro-3-((1S,5R,6S)-2-(hydroxymethyl)-3-azabicyclo[3.1.0]hexan-6-yl)-1-methyl-1H-pyrazolo[4,3-c]pyridin-6-yl)naphthalen-2-ol]
[1]
  Kd: 0.19 µM
[2]
  IC50: 2.22 µM

## C#Cc1c(F)ccc2cc(O)cc(-c3nc(OCC(C)C)c4c([C@H]5[C@@H]6CNC[C@@H]65)nn(C5CC5)c4c3F)c12 [Example 100, 4-(3-((1R,5S,6r)-3-azabicyclo[3.1.0]hexan-6-yl)-1-cyclopropyl-7-fluoro-4-isobutoxy-1H-pyrazolo[4,3-c]pyridin-6-yl)-5-ethynyl-6-fluoronaphthalen-2-ol]
[1]
  Kd: 0.704 µM
[2]
  IC50: 1.76 µM

## C#Cc1c(F)ccc2cc(O)cc(-c3ncc4c([C@H]5[C@@H]6CNC[C@@H]65)nn(CCCN(C)C)c4c3F)c12 [Example 102, 4-(3-((1R,5S,6r)-3-azabicyclo[3.1.0]hexan-6-yl)-1-(3-(dimethylamino)propyl)-7-fluoro-1H-pyrazolo[4,3-c]pyridin-6-yl)-5-ethynyl-6-fluoronaphthalen-2-ol]
[1]
  Kd: 7.6 µM
[2]
  IC50: > 10 µM

## C#Cc1c(F)ccc2cc(O)cc(-c3ncc4c(C5[C@H]6CNC[C@@H]56)cn(CCO)c4c3F)c12 (stereo partly drawn) [Example 103, 4-(3-((1R,5S)-3-azabicyclo[3.1.0]hexan-6-yl)-7-fluoro-1-(2-hydroxyethyl)-1H-pyrrolo[3,2-c]pyridin-6-yl)-5-ethynyl-6-fluoronaphthalen-2-ol]
[1]
  Kd: 0.488 µM
[2]
  IC50: > 50 µM

## C#Cc1c(F)ccc2cc(O)cc(-c3ncc4c([C@H]5[C@@H]6CNC[C@@H]65)nn([C@@H]5C[C@@H]5C)c4c3F)c12 [Example 104, 4-(3-((1R,5S,6r)-3-azabicyclo[3.1.0]hexan-6-yl)-7-fluoro-1-((1R,2S)-2-methylcyclopropyl)-1H-pyrazolo[4,3-c]pyridin-6-yl)-5-ethynyl-6-fluoronaphthalen-2-ol]
[1]
  Kd: 1.17 µM
[2]
  IC50: 12.5 µM

## C#Cc1c(F)ccc2cc(O)cc(-c3ncc4c(N5CC6CCC5CN6)nn(C5CC5)c4c3F)c12 (stereo not drawn) [Example 105, 4-(3-(2,5-diazabicyclo[2.2.2]octan-2-yl)-1-cyclopropyl-7-fluoro-1H-pyrazolo[4,3-c]pyridin-6-yl)-5-ethynyl-6-fluoronaphthalen-2-ol]
[1]
  Kd: 0.0185 µM
[2]
  IC50: 0.515 µM

## C#Cc1c(F)ccc2cc(O)cc(-c3ncc4c(N5C[C@@H]6CC[C@H]5CN6)nn(C5CC5)c4c3F)c12 [Example 106, 4-(3-((1S,4S)-2,5-diazabicyclo[2.2.2]octan-2-yl)-1-cyclopropyl-7-fluoro-1H-pyrazolo[4,3-c]pyridin-6-yl)-5-ethynyl-6-fluoronaphthalen-2-ol]
[1]
  Kd: 0.00939 µM
[2]
  IC50: 0.163 µM
